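In this assay, cells in 96-well plates receive the compound at five concentrations for 48 hours. Endpoints are linearly interpolated between the surrounding concentrations. GI50 = concentration required for 50% inhibition of growth. The concentration for full growth arrest is given as TGI.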
What was measured:
Experiment in all cases: growth of human tumour cells (NCI), 48 h
[1] = system: DLD-1 colon
[2] = system: UACC-62 melanoma
[3] = system: IGROV1 ovarian
[4] = system: RPMI-8226 leukemia
[5] = system: UACC-257 melanoma
[6] = system: A498 renal
[7] = system: SN12C renal
[8] = system: HL-60(TB) leukemia
[9] = system: SNB-78 CNS
[10] = system: SF-539 CNS
[11] = system: EKVX NSCLC

Row | SMILES | TGI [1] | TGI [2] | TGI [3] | TGI [4] | TGI [5] | TGI [6] | TGI [7] | TGI [8] | TGI [9] | TGI [10] | TGI [11] | GI50 [2] | GI50 [3] | GI50 [4] | GI50 [5] | GI50 [6] | GI50 [7] | GI50 [8] | GI50 [11]
1 | O=C(NC(Cc1ccc(I)cc1)C(=O)O)c1ccc(Br)cc1 (configuration not stated) | > 100 µM | > 100 µM | > 100 µM | > 100 µM | > 100 µM | > 100 µM | > 100 µM | > 100 µM | > 100 µM | > 100 µM | 31 µM |  |  |  |  |  |  |  | 
2 | COc1ccc(/C(Cl)=C(\C=O)c2ccc(F)cc2)cc1OC | 78.4 µM | 61.6 µM | > 100 µM | 46.3 µM |  | 54.8 µM | 77.1 µM | 37.5 µM | 62.5 µM | 59 µM | 65.4 µM |  |  |  |  |  |  |  | 
3 | Cc1[nH]c(=O)[nH]c(=O)c1/C=C/C(=O)O | > 1000 µM | > 1000 µM | > 1000 µM | > 1000 µM | > 1000 µM | > 1000 µM | > 1000 µM | > 1000 µM | > 1000 µM | > 1000 µM | > 1000 µM |  |  |  |  |  |  |  | 
4 | C[C@]12CCc3nc(Nc4ccccc4)sc3C1=CC[C@@H]1[C@@H]2CC[C@]2(C)/C(=N/NC(N)=S)CC[C@@H]12 |  | > 100 µM | > 100 µM | 6.61 µM | > 100 µM | > 100 µM | > 100 µM | 17 µM |  |  | > 100 µM | 5.85 µM | 3.89 µM | 1.61 µM | 6.1 µM | 1.39 µM | 3.52 µM | 3.03 µM | 19.2 µM
5 | COc1ccc2nc3ccccc3c(NCCCCCCN(CCCl)CCCl)c2c1 | 2.2 µM |  | 3.85 µM |  | > 22.9 µM |  |  | 0.592 µM | 2.13 µM |  | 4.22 µM |  |  |  |  |  |  |  | 
6 | COc1cc(Nc2c3ccccc3nc3ccccc23)ccc1NS(C)(=O)=O | 22 µM | 26.7 µM | 36.3 µM | > 100 µM | 24.2 µM | 19.6 µM | 9.32 µM | 30.1 µM | 47.1 µM | 15.6 µM | 23.1 µM |  |  |  |  |  |  |  | 
7 | Cc1ccc(S(=O)(=O)OCC(=O)O)cc1 |  | > 100 µM | > 100 µM | > 100 µM | > 100 µM | > 100 µM | > 100 µM | > 100 µM |  |  | > 100 µM |  |  |  |  |  |  |  | 
8 | COC(=O)C1=C(C(=O)OC)SC2(S1)C1=C(CCCC1)SC(C(=O)OC)=C2C(=O)OC |  | 25.7 µM | 20.6 µM | 17.7 µM | 28.9 µM | 19.4 µM | 14.6 µM | > 100 µM |  | 4.27 µM | 26.6 µM |  |  |  |  |  |  |  | 
9 | Nc1ccc2[nH]c3c(-c4ccccc4)nccc3c2c1 | > 100 µM | > 80.8 µM | > 100 µM | > 100 µM | > 100 µM | > 100 µM | > 100 µM | 38.2 µM | > 100 µM | > 100 µM | > 100 µM |  |  |  |  |  |  |  | 
10 | N=C(N)c1ccc(N=Nc2c(O)ccc3c2[nH]c2ccccc23)cc1 |  | > 100 µM | > 100 µM | 5.07 µM | > 89.1 µM | > 100 µM | > 83.4 µM | > 100 µM |  | > 100 µM | > 100 µM |  |  |  |  |  |  |  | 
